Measurements taken from US9220705B2, “Method of treating colorectal cancer” (priority 2013, dated 2015).
Entries after “also recorded” stand apart in the source; their conditions may differ. Read-outs that look alike come from different tables or passages of the source.

Experiments:
[1] = test system: panel of human tumor cell lines (A431, MCF-7, A375, HCT-15, SW480, CaCo-2, DLD-1); assay: MTT cytotoxicity, comparison over the Table 1 panel; assay type: cell-based; settings: average over seven cell lines of Table 1
Procedure: (§1) After 24 h, the medium was removed and replaced with a fresh one containing the compound to be studied, at the appropriate concentration, dissolved in 0.9% sodium chloride solution just before use. Triplicate cultures were established for each treatment. After 72 h, each well was treated with […] of a 5 mg mL^−1 MTT saline solution and, after 5 h of incubation, 100 μL of a sodium dodecylsulfate (SDS) solution in 0.01 M HCl were added. After an overnight incubation, the inhibition of cell growth induced by the tested complexes was determined by measuring the absorbance of each well at 570 nm using a BioRad 680 microplate reader. Mean absorbance for each drug dose was expressed as percentage of the control and plotted vs. drug concentration. Dose-response curves were fitted and IC50 values were calculated with four parameter logistic model (4PL).
The cytotoxicity was evaluated by means of the MTT test for 72 h treatment with increasing concentrations of the tested compounds.

[2] = test system: LoVo-OXP colorectal adenocarcinoma xenografts; assay: In vivo anticancer activity, oxaliplatin-resistant colorectal xenograft; set-up: species or system BALB/c nu/nu mice; settings: LoVo-OXP xenograft mice, day 14 to day 30; FIG. 5 panel B
Procedure: (§2) LoVo and LoVo-OXP tumor xenografts were established in 6-week-old BALB/c nu/nu mice by injecting 1×10^7 tumor cells subcutaneously (100 μL in serum free medium) on the left dorsal flank. After 24 h from tumor implantation, mice were randomly divided into five groups (6 animals per group, 8 controls). Chemotherapy was delayed until the tumor became palpable (day 14). From day 14, 1 was dosed daily at 3 mg/kg ip whereas OXP was dosed daily at 2 mg/kg ip. Measurements of body weights and tumor volumes were recorded every 2 days until the experimental endpoint. The long axis (L) and the short axis (S) were measured with caliper, and the tumor volume (V) was calculated using the following equation: V=S×S×L/2. At day 30, animals were sacrificed, and the inhibition of tumor growth was determined by comparing the volume of the control group and the treatment group expressed as % referred to the control animals.
(§3) All the values are the means±S.D. of not less than three measurements. Multiple comparisons were made by Tukey-Kramer test (**p<0.01; *p<0.05).

[3] = assay type: physicochemical
From the text: Lipophilicity is usually expressed in terms of n-octanol/water partition coefficient, log Po/w, and correlates with cellular uptake by passive diffusion (Liu, X., et al., Pharm. Res. 2011, 28, 962-977).
Since RP-HPLC retention is due to partitioning between mobile (polar) and stationary (apolar) phases, there is a good correlation between capacity factor k′ (k′=(tR−t0)/t0, where t0 is the retention time for an unretained compound and tR is the retention time of the analyte) and partition coefficient (log Po/w=a+b log k′). Thus the HPLC procedure represents a good alternative to the time- and material-consuming shake-flask method. […] This implies that there are specific import (CTR1, OCT, etc.) or export (ATP7B) mechanisms which operate selectively on the different types of complexes.

[4] = test system: 2008/C13*, LoVo/LoVo-OXP, LoVo MDR; assay: MTT cytotoxicity, comparison over the Table 2 cell lines; assay type: cell-based, human; settings: 2008 ovarian and LoVo colon sensitive cells
Procedure: as §1
A LoVo cell line retaining a multidrug resistance phenotype was also considered (LoVo MDR). Cross-resistance profiles were evaluated by means of the resistance factor (RF), which is defined as the ratio between the IC50 value for the resistant cells and that arising from the sensitive cells (Table 2).

[5] = test system: human ovarian A2780 cancer cell line; settings: Kasparkova 2010; cited from earlier work
Aqueous solubility = assay type: physicochemical; settings: compared to compound 2
[6] = test system: Lewis lung carcinoma (LLC); assay: In vivo anticancer activity toward Lewis lung carcinoma; set-up: species or system C57BL mice; settings: LLC-bearing mice
Procedure: All studies involving animal testing were carried out in accordance with the ethical guidelines for animal research adopted by the University of Padua, acknowledging the Italian regulation and the European Directive 86/609/EEC as to animal welfare and protection and the related codes of practice. The mice were purchased from Charles River, Italy, and housed in steel cages under controlled environmental conditions (constant temperature, humidity, and 12 h dark/light cycle) and alimented with commercial standard feed and tap water ad libitum. Animals were observed daily, and body weight and food intake recorded. The Lewis lung carcinoma (LLC) cell line was purchased from ECACC, UK. The LLC cell line was maintained in D-MEM (Euroclone) supplemented with 10% heat-inactivated FBS (Euroclone), 10 mM L-glutamine, 100 U mL^−1 penicillin, and 100 μg mL^−1 streptomycin in a 5% CO2 air incubator at 37° C.
The Lewis lung carcinoma (LLC) was implanted i.m. as a 2×10^6 cell inoculum into the right hind leg of 8-week old male and female C57BL mice (24±3 g body weight). […] At day 15, animals were sacrificed, the legs were amputated at the proximal end of the femur, and the inhibition of tumor growth was determined according to the difference in weight of the tumor-bearing leg and the healthy leg of the animals expressed as % referred to the control animals. Body weight was measured every two days and was taken as a parameter for systemic toxicity.
All the values are the means±S.D. of not less than three measurements. Multiple comparisons were made by Tukey-Kramer test (**p<0.01; *p or °p<0.05).
The in vivo antitumor activity of compound 1 was evaluated in a model of solid tumor, the syngeneic murine Lewis lung carcinoma (LLC). […] For the assessment of the adverse side effects, changes in body weights of tumor-bearing mice were monitored daily (FIG. 3).

[7] = test system: LoVo colorectal adenocarcinoma xenografts; assay: In vivo anticancer activity, oxaliplatin-sensitive colorectal xenograft; set-up: species or system BALB/c nu/nu mice; settings: LoVo xenograft mice, day 14 to day 30; FIG. 5 panel A
Procedure: as §2, §3

[8] = literature values; cited from earlier work
LoVo-OXP cells = assay: Cellular platinum uptake by GF-AAS; assay type: cell-based, human; settings: LoVo-OXP resistant cells, 5 μM, 6, 24, 48 h, FIG. 2 panel B, compared with LoVo
Procedure: LoVo and LoVo-OXP cells (2×10^6) were seeded in 75 cm^2 flasks in growth medium (20 ml). After 24 h, the medium was replaced and the cells incubated for different times (6, 24 or 48 h) in the presence of the tested complexes. Cell monolayers were washed twice with cold PBS and harvested. Samples were subjected to three freezing/thawing cycles at −80° C., and then vigorously vortexed. Aliquots were removed for the determination of protein content by the BioRad protein assay (BioRad). The samples were treated with 1 mL of highly pure nitric acid (Pt: ≦0.01 μg×kg^−1, TraceSELECT® Ultra, Sigma Chemical Co.) and transferred into a microwave teflon vessel. Subsequently, samples were submitted to a standard procedure using a speed wave MWS-3 Berghof instrument (Eningen, Germany). After cooling, each mineralized sample was analyzed for platinum by using a Varian AA Duo graphite furnace atomic absorption spectrometer (Varian, Palo Alto, Calif.; USA) at the wavelength of […]. The calibration curve was obtained using known concentrations of standard solutions purchased from Sigma Chemical Co.
It is well-known that cellular uptake is an important factor influencing drug efficacy. […] The intracellular platinum was quantified by means of GF-AAS analysis and the results, expressed as μg metal mg^−1 of cellular proteins, are summarized in FIG. 2.

Row | SMILES | average cytotoxic activity compared with reference drugs [1] | body weight loss [2] | log Po/w [3] | cytotoxic activity towards sensitive lines compared with reference drugs [4] | cytotoxicity, fold greater than cisplatin [5] | aqueous solubility (Aqueous solubility) | body weight loss compared with cisplatin ([6]; 1.5 mg kg^−1 each, FIG. 3) | tolerability compared with cisplatin ([6]; daily i.p.) | adverse side effects (body weight loss) compared with cisplatin ([6]; compound 1 at 3 mg kg^−1, FIG. 3) | body weight loss [7] | log Po/w [8] | intracellular platinum accumulation (LoVo-OXP cells)
1 | [Cl][Pt]1([Cl])[NH]C2CCC(CC2)[NH]1 [Compound 1, [SP-4-2-(cis)]-dichloro(1,4-cyclohexanediamine-N,N′)platinum] | slightly more effective than oxaliplatin | roughly equivalent to that obtained by using the parent drug oxaliplatin | −1.57±0.10 | as good as oxaliplatin and better than cisplatin | 3.4-5.4 | enhanced aqueous solubility compared to compound 2 | about half that caused by cisplatin | better tolerated than cisplatin | smaller adverse side effects than cisplatin | roughly equivalent to that obtained by using the parent drug oxaliplatin | – | –
2 | [Cl][Pt]1([Cl])[NH][C@@H]2CCCC[C@H]2[NH]1 [Compound 2, [SP-4-2]-dichloro[(1R,2R)-1,2-cyclohexanediamine-N^1,N^2]platinum] | – | – | – | – | – | – | – | – | – | – | −1.40 | remarkably decreased; also recorded: decreases remarkably
